The text below walks through data of publication PMC6856977 (Molecular Pain, 2018).

Experiment [1] concerns the target mTRPA1 (Mus musculus, UniProt Q8BLA8). Nature of the experiment: whole-cell patch clamp, evoked inward current. In general terms: The patch-clamp technique gives a direct electrical read-out from membranes.
Experiment [2] deals with hTRPA1 (Homo sapiens, UniProt O75762). Nature of the experiment: whole-cell patch clamp, evoked inward current. The format is cell-based.
Experiment [3] concerns the target hTRPA1 (Homo sapiens, UniProt O75762, C621S/C641S/C665S). The experiment is described as follows: whole-cell patch clamp, evoked inward current. The format is cell-based.
Experiment [4] has as its target T1, rTRPV1 (Rattus norvegicus, UniProt O35433). Nature of the experiment: whole-cell patch clamp, block of capsaicin-evoked current. In kind it is cell-based. Particulars: channel block; capsaicin 100 nM; HEK293t, -60 mV, room temperature, pH 7.4.
In experiment [5] the target is T1, rTRPV1. Nature of the experiment: whole-cell patch clamp, evoked inward current. Conditions: agonist; 10% PG (1366 mM); HEK293t, -60 mV, room temperature, pH 7.4. In kind it is cell-based.

SMILES strings stand for the structures. pEC50: −log10 of the molar value.

T1 sequence (O35433 whole entry): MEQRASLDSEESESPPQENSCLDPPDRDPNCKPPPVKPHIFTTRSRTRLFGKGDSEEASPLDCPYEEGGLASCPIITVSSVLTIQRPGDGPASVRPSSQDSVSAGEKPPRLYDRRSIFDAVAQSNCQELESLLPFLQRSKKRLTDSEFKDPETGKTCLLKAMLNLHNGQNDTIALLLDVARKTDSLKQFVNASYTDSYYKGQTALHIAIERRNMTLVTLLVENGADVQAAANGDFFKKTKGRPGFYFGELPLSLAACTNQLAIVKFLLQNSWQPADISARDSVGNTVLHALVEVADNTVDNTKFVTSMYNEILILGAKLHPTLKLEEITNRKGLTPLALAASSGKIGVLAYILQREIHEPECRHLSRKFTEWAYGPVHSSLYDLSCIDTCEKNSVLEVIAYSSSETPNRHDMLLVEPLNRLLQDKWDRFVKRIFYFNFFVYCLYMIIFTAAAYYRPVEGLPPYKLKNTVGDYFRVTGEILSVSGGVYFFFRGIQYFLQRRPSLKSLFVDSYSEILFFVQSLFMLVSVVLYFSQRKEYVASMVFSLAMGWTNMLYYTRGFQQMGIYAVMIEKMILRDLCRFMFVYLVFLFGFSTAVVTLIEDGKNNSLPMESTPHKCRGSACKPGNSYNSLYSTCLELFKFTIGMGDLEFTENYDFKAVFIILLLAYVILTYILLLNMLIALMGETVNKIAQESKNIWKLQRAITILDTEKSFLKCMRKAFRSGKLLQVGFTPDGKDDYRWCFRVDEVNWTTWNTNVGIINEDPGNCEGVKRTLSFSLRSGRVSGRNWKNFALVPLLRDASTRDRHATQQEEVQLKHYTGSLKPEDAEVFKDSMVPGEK
Chain of hTRPA1 (Homo sapiens, UniProt O75762, C621S/C641S/C665S) (O75762 whole entry C621S/C641S/C665S): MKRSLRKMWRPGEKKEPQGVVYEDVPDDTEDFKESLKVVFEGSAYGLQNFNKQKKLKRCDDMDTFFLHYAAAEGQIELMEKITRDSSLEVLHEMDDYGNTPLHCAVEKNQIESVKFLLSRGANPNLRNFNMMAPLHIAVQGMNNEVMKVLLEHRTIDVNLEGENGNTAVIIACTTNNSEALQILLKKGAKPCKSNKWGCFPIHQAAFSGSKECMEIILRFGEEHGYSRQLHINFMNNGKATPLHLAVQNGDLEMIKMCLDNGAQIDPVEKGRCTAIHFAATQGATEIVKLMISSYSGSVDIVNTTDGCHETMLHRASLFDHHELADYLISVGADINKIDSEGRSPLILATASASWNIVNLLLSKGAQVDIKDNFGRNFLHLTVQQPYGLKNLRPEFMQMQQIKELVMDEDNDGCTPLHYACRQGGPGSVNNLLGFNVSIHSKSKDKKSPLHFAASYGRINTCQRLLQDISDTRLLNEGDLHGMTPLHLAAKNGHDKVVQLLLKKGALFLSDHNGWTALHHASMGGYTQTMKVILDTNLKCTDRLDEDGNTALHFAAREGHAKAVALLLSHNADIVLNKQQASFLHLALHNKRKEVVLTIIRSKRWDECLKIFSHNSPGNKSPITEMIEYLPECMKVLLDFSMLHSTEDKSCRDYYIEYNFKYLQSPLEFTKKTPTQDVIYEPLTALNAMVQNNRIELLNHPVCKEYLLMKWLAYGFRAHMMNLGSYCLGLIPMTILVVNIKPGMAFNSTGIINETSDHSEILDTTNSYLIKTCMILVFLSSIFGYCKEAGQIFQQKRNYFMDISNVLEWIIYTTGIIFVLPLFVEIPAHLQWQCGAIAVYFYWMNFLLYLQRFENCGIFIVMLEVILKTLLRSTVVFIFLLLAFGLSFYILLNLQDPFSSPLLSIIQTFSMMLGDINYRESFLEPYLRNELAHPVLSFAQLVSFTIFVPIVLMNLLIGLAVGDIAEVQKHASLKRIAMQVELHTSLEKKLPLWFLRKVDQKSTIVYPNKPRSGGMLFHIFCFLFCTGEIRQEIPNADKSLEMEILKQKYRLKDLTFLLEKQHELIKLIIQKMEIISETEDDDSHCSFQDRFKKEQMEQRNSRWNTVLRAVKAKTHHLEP
Chain of hTRPA1 (Homo sapiens, UniProt O75762) (O75762 whole entry): as the sequence (O75762 whole entry C621S/C641S/C665S) above, with S621C, S641C, S665C counted along it
Chain of mTRPA1 (Q8BLA8 whole entry): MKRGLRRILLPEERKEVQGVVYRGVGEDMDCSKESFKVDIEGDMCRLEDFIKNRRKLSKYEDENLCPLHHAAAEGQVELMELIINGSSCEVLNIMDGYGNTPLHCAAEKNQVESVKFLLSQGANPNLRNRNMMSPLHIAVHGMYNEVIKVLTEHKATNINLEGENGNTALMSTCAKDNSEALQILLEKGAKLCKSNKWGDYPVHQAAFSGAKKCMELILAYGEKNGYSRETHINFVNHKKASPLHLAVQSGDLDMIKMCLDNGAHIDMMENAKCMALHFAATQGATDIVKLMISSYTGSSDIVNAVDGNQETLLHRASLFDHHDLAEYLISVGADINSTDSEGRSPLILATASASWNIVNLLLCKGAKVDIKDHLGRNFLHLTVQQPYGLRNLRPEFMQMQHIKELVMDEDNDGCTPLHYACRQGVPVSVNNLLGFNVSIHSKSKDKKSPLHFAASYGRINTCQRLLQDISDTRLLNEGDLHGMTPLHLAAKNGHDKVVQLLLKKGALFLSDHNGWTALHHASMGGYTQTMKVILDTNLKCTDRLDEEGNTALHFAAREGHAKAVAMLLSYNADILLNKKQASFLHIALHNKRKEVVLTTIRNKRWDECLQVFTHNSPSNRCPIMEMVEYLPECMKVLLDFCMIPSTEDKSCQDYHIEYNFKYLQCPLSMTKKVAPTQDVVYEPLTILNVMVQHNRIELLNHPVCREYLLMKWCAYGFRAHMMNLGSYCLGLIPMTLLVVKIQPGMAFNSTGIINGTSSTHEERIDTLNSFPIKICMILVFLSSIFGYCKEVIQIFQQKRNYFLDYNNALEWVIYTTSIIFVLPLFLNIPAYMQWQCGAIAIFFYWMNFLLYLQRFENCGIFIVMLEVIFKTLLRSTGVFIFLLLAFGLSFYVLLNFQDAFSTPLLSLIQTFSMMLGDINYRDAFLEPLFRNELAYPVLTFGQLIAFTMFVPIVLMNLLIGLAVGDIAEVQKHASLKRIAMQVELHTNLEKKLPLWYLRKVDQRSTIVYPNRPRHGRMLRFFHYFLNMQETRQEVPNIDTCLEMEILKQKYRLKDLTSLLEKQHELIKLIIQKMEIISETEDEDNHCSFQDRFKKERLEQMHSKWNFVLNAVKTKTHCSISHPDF

A word on the pEC50: it is the EC50 on a negative log10 scale, so that one unit is a factor of ten. A higher pEC50 goes with a small EC50. Consider `CCOC(=O)c1cncn1[C@H](C)c1ccccc1` [etomidate], for which the pEC50 in experiment [1] was 3.43; in experiment [2], 4.14; in experiment [3] it was roughly 2.86. In experiment [4], the “% current reduction at 100 μM” value was 32 (95% CI: 20.2–43.8).

As to `CC(O)CO` (centres unmarked) [propylene glycol], the “current density at 10% PG” value in experiment [5] was 215 ± 26 pA/pF.
